In this assay the target is T1, mKv1.3 (Mus musculus, UniProt P16390).
T1 construct: expressed in transfected cells
As to the kind of experiment: Whole-cell patch-clamp block of Kv1.3 currents. It counts as cell-based. To be noted: L929 mouse fibroblasts stably expressing mKv1.3, room temperature, peak current at 40 mV, Hill fit, n = 3 cells per concentration, read-out: IC50 against Kv1.3. Here is the method:
L929 mouse fibroblast cells stably expressing mKv1.3[32] were gifts from Dr. K. George Chandy (University of California, Irvine). They were maintained in DMEM medium (Invitrogen, Carlsbad, CA) supplemented with 100 IU/mL penicillin, […] streptomycin, 2 mM L-glutamine, 10% heat-inactivated foetal bovine serum, and 0.5 mg/mL G418 (EMD Chemicals, Gibbstown, NJ).
Electrophysiology experiments were conducted at room temperature in the whole-cell configuration of the patch-clamp technique on a Port-a-Patch setup (Nanion, North Brunswick, NJ) linked to a HEKA EPC10USB amplifier (HEKA Instruments, Bellmore, NY). A holding potential of −80 mV was used for all recordings. Pipette resistances averaged 2.0 MΩ when filled with internal solution containing (in mM): 145 KF, 10 HEPES, 10 EGTA, and 2 MgCl2, pH 7.2, 290 mOsm. Kv currents were elicited every 30 s by 200-ms depolarising pulses from a holding potential of −80 mV to 40 mV. Kv1.3 currents were recorded in normal Ringer solution containing (in mM): 160 NaCl, 4.5 KCl, 2 CaCl2, 1 MgCl2, and 10 HEPES, pH 7.2, 300 mOsm. IC50 values and Hill coefficients were determined by fitting the Hill equation to the reduction of peak current by the drug at 40 mV.
Figure S2. […] (a) Whole-cell Kv1.3 currents measured by whole-cell patch-clamp in stably transfected L929 fibroblasts before (control) and after perfusion of 10 pM and 100 nM NOTA-HsTX1[R14A]. […]
In general terms: The patch-clamp technique gives a direct electrical read-out from membranes.

T1 sequence (P16390 whole entry): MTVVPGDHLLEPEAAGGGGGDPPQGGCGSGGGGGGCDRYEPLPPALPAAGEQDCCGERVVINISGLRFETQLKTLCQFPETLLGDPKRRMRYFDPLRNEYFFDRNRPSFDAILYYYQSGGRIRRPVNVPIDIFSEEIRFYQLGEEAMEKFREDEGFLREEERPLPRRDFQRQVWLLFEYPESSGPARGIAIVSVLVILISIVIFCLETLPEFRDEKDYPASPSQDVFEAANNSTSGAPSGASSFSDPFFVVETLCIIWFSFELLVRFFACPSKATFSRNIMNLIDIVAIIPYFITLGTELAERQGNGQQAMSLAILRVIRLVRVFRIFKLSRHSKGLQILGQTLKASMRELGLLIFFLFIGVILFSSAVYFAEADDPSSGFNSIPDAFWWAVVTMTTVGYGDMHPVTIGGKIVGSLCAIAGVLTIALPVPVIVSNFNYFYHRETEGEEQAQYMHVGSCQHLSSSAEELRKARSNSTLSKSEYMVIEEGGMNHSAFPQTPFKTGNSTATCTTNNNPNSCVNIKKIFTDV

By IC50 is commonly meant the concentration at which inhibition is half-maximal. For `CSCC[C@@H]1NC(=O)[C@@H]2CSSC[C@H](NC(=O)[C@H](CO)NC(=O)[C@H](C)NC(=O)COCCOCCNC(=O)CN3CCN(CC(=O)O)CCN(CC(=O)O)CC3)C(=O)N[C@@H](CCCNC(=N)N)C(=O)N[C@@H]([C@@H](C)O)C(=O)N3CCC[C@H]3C(=O)N[C@@H](CCCCN)C(=O)N[C@@H](CC(=O)O)C(=O)N[C@H]3CSSC[C@H](NC(=O)[C@H](CCCCN)NC(=O)[C@H](CCCNC(=N)N)NC(=O)[C@H](CC(N)=O)NC1=O)C(=O)N[C@@H](CCCCN)C(=O)N[C@H]1CSSC[C@H](NC(=O)[C@@H]4CCCN4C(=O)[C@H](CC(=O)O)NC(=O)[C@H](C)NC3=O)C(=O)N[C@@H](C)C(=O)N[C@@H](CCCCN)C(=O)N[C@@H](CCC(=O)O)C(=O)N[C@@H]([C@@H](C)O)C(=O)NCC(=O)N[C@@H](CSSC[C@@H](C(N)=O)NC(=O)[C@H](CCCNC(=N)N)NC(=O)[C@H](CC(N)=O)NC1=O)C(=O)N1CCC[C@H]1C(=O)N[C@@H](Cc1ccc(O)cc1)C(=O)NCC(=O)N[C@@H](CCCCN)C(=O)N2` [NOTA-HsTX1[R14A]], the IC50 was 68 ± 12 pM.
